The structures appear in SMILES notation. pKd: −log10 of the molar value. Bridge positions count the residues as written; N and C are the ends. Square brackets hold non-standard residues; d marks the D form. Peptide text beside a SMILES is read from it. * marks the point of attachment. DOTA = O=C(O)CN1CCN(CC(=O)O)CCN(CC(=O)*)CCN(CC(=O)O)CC1; Trp(7-aza) = N[C@@H](Cc1c[nH]c2ncccc12)C(=O)O; Pro(trans-4-F) = O=C(O)[C@@H]1C[C@@H](F)CN1; Bip = N[C@@H](Cc1ccc(-c2ccccc2)cc1)C(=O)O; Pro(cis-4-F) = O=C(O)[C@@H]1C[C@H](F)CN1; 1Nal = N[C@@H](Cc1cccc2ccccc12)C(=O)O; 2Nal = N[C@@H](Cc1ccc2ccccc2c1)C(=O)O; Hyp = O=C(O)[C@@H]1C[C@@H](O)CN1; αMeD = C[C@](N)(CC(=O)O)C(=O)O; Pip = O=C(O)[C@@H]1CCCCN1; hSer = N[C@@H](CCO)C(=O)O; Ahx = NCCCCCC(=O)O

For this test, the target named is T1, human DLL3 (Homo sapiens, UniProt Q9NYJ7).
T1 construct: biotin (biotinylated)
T1 sequence (Q9NYJ7 27-618): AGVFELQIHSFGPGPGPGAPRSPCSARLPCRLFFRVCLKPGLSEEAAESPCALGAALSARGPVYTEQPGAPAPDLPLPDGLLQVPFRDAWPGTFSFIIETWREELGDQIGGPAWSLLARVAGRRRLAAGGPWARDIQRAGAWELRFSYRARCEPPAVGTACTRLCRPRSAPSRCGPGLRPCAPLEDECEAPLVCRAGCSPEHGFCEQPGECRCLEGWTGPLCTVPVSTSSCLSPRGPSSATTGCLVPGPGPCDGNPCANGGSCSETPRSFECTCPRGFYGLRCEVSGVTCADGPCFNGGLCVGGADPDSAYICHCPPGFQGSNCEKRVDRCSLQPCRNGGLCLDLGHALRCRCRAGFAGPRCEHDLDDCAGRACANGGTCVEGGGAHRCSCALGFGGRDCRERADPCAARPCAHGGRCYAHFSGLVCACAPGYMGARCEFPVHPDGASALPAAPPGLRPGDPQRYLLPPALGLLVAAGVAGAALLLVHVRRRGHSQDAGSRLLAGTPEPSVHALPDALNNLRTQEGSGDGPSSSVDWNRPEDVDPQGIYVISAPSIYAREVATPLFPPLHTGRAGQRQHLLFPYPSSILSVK
The experiment in a line: Affinity determination by Surface Plasmon Resonance (SPR), Biacore, 1:1 binding model. Particulars: biotinylated human DLL3 on streptavidin chip, 25° C.; NB = nonbinding. The procedure, abridged: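 SPR with biotinylated human DLL3 captured on a streptavidin chip, with a reference surface subtracted. Samples were injected at several concentrations at 100 μL/min in phosphate buffer with 137 mM NaCl, 2.7 mM KCl, 0.05% P20 and 2% DMSO. Kinetic and affinity constants came from a 1:1 binding fit.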
In general terms: Surface plasmon resonance follows binding to a sensor surface in real time, without labels.
As for `CC(C)C[C@@H]1NC(=O)[C@H](Cc2c[nH]c3ccccc23)NC(=O)[C@@H](NC(=O)[C@H](CC(=O)O)NC(=O)[C@H](CO)NC(=O)CCCCCNC(=O)CN2CCN(CC(=O)O)CCN(CC(=O)O)CCN(CC(=O)O)CC2)CSSC[C@@H](C(=O)N2CCC[C@H]2C(=O)N[C@@H](Cc2ccc(-c3ccccc3)cc2)C(=O)N[C@@H](CC(=O)O)C(N)=O)NC(=O)[C@H](CC(N)=O)NC(=O)[C@H](Cc2c[nH]c3ccccc23)NC(=O)[C@H](CCC(N)=O)NC1=O` [compound 38, DOTA-Ahx-S-D-C(3)-W-L-Q-W-N-C(3)-P-(BIP)-D-CONH2] ({DOTA-Ahx}-SDCWLQWNCP[Bip]D-NH2; disulfide 3-9), the negative logarithm of the Kd (pKd) (usually −log10 of the Kd, conventionally taken in molar units) was < 6.52.

Turning to `CC(C)C[C@@H]1NC(=O)[C@H](Cc2c[nH]c3ccccc23)NC(=O)[C@@H](NC(=O)[C@H](CC(=O)O)NC(=O)[C@H](CO)NC(=O)CCCCCNC(=O)CN2CCN(CC(=O)O)CCN(CC(=O)O)CCN(CC(=O)O)CC2)CSSC[C@@H](C(=O)N2CCC[C@H]2C(=O)N[C@@H](Cc2cccc3ccccc23)C(=O)N[C@@H](CC(=O)O)C(N)=O)NC(=O)[C@H](CC(N)=O)NC(=O)[C@H](Cc2c[nH]c3ccccc23)NC(=O)[C@H](CCC(N)=O)NC1=O` [compound 39, DOTA-Ahx-S-D-C(3)-W-L-Q-W-N-C(3)-P-(1Nal)-D-CONH2] ({DOTA-Ahx}-SDCWLQWNCP[1Nal]D-NH2; disulfide 3-9), the negative-log Kd (pKd) was < 7.00.

Consider `CC(C)C[C@@H]1NC(=O)[C@H](Cc2c[nH]c3ccccc23)NC(=O)[C@@H](NC(=O)[C@H](CC(=O)O)NC(=O)[C@H](CO)NC(=O)CCCCCNC(=O)CN2CCN(CC(=O)O)CCN(CC(=O)O)CCN(CC(=O)O)CC2)CSSC[C@@H](C(=O)N2CCC[C@H]2C(=O)N[C@@H](Cc2ccc3ccccc3c2)C(=O)N[C@@H](CC(=O)O)C(N)=O)NC(=O)[C@H](CC(N)=O)NC(=O)[C@H](Cc2c[nH]c3ccccc23)NC(=O)[C@H](CCC(N)=O)NC1=O` [compound 40, DOTA-Ahx-S-D-C(3)-W-L-Q-W-N-C(3)-P-(2Nal)-D-CONH2] ({DOTA-Ahx}-SDCWLQWNCP[2Nal]D-NH2; disulfide 3-9), for which the pKd is < 6.52.

The compound `CSCC[C@H](NC(C)=O)C(=O)N[C@@H](CO)C(=O)N[C@@H](CC(=O)O)C(=O)N[C@H]1CSSC[C@@H](C(=O)N2C[C@H](F)C[C@H]2C(=O)N[C@@H](Cc2ccccc2)C(=O)N[C@@H](CC(=O)O)C(=O)N[C@H](CCCCNC(=O)CN2CCN(CC(=O)O)CCN(CC(=O)O)CCN(CC(=O)O)CC2)C(N)=O)NC(=O)[C@H](CC(N)=O)NC(=O)[C@H](Cc2c[nH]c3ccccc23)NC(=O)[C@H](CCC(N)=O)NC(=O)[C@H](CC(C)C)NC(=O)[C@H](Cc2c[nH]c3ccccc23)NC1=O` [compound 42, Ac-M-S-D-C(3)-W-L-Q-W-N-C(3)-(trans4Fluoro-P)-F-D-D-Lys(DOTA)-CONH2] (Ac-MSDCWLQWNC[Pro(trans-4-F)]FD[dK](DOTA)-NH2; disulfide 4-10) had a pKd of 8.00.

Compound `CSCC[C@H](NC(C)=O)C(=O)N[C@@H](CO)C(=O)N[C@@H](CC(=O)O)C(=O)N[C@H]1CSSC[C@@H](C(=O)N2C[C@@H](F)C[C@H]2C(=O)N[C@@H](Cc2ccccc2)C(=O)N[C@@H](CC(=O)O)C(=O)N[C@H](CCCCNC(=O)CN2CCN(CC(=O)O)CCN(CC(=O)O)CCN(CC(=O)O)CC2)C(N)=O)NC(=O)[C@H](CC(N)=O)NC(=O)[C@H](Cc2c[nH]c3ccccc23)NC(=O)[C@H](CCC(N)=O)NC(=O)[C@H](CC(C)C)NC(=O)[C@H](Cc2c[nH]c3ccccc23)NC1=O` [compound 43, Ac-M-S-D-C(3)-W-L-Q-W-N-C(3)-(cis4Fluoro-P)-F-D-D-Lys(DOTA)-CONH2] (Ac-MSDCWLQWNC[Pro(cis-4-F)]FD[dK](DOTA)-NH2; disulfide 4-10) showed a negative-log Kd (pKd) of 7.55.

`CSCC[C@H](NC(C)=O)C(=O)N[C@@H](CO)C(=O)N[C@@H](CC(=O)O)C(=O)N[C@H]1CSSC[C@@H](C(=O)N2C[C@H](O)C[C@H]2C(=O)N[C@@H](Cc2ccccc2)C(=O)N[C@@H](CC(=O)O)C(=O)N[C@H](CCCCNC(=O)CN2CCN(CC(=O)O)CCN(CC(=O)O)CCN(CC(=O)O)CC2)C(N)=O)NC(=O)[C@H](CC(N)=O)NC(=O)[C@H](Cc2c[nH]c3ccccc23)NC(=O)[C@H](CCC(N)=O)NC(=O)[C@H](CC(C)C)NC(=O)[C@H](Cc2c[nH]c3ccccc23)NC1=O` [compound 44, Ac-M-S-D-C(3)-W-L-Q-W-N-C(3)-(trans4OH-P)-F-D-D-Lys(DOTA)-CONH2] (Ac-MSDCWLQWNC[Hyp]FD[dK](DOTA)-NH2; disulfide 4-10): the pKd was 7.59.

In turn, `CSCC[C@H](NC(C)=O)C(=O)N[C@@H](CO)C(=O)N[C@@H](CC(=O)O)C(=O)N[C@H]1CSSC[C@@H](C(=O)N2CCCC[C@H]2C(=O)N[C@@H](Cc2ccccc2)C(=O)N[C@@H](CC(=O)O)C(=O)N[C@H](CCCCNC(=O)CN2CCN(CC(=O)O)CCN(CC(=O)O)CCN(CC(=O)O)CC2)C(N)=O)NC(=O)[C@H](CC(N)=O)NC(=O)[C@H](Cc2c[nH]c3ccccc23)NC(=O)[C@H](CCC(N)=O)NC(=O)[C@H](CC(C)C)NC(=O)[C@H](Cc2c[nH]c3ccccc23)NC1=O` [compound 47, Ac-M-S-D-C(3)-W-L-Q-W-N-C(3)-(Pip)-F-D-D-Lys(DOTA)-CONH2] (Ac-MSDCWLQWNC[Pip]FD[dK](DOTA)-NH2; disulfide 4-10) had a pKd of 7.59.

With `CSCC[C@H](NC(C)=O)C(=O)N[C@@H](CO)C(=O)N[C@@H](CC(=O)O)C(=O)N[C@H]1CSSC[C@@H](C(=O)N2CCC[C@H]2C(=O)N[C@@H](Cc2ccccc2)C(=O)N[C@@](C)(CC(=O)O)C(=O)N[C@H](CCCCNC(=O)CN2CCN(CC(=O)O)CCN(CC(=O)O)CCN(CC(=O)O)CC2)C(N)=O)NC(=O)[C@H](CC(N)=O)NC(=O)[C@H](Cc2c[nH]c3ccccc23)NC(=O)[C@H](CCC(N)=O)NC(=O)[C@H](CC(C)C)NC(=O)[C@H](Cc2c[nH]c3ccccc23)NC1=O` [compound 53, Ac-M-S-D-C(3)-W-L-Q-W-N-C(3)-P-F-(aMeD)-D-Lys(DOTA)-CONH2] (Ac-MSDCWLQWNCPF[αMeD][dK](DOTA)-NH2; disulfide 4-10), the pKd was < 6.52.

As for `CSCC[C@H](NC(C)=O)C(=O)N[C@@H](CO)C(=O)N[C@@H](CC(=O)O)C(=O)N[C@H]1CSSC[C@@H](C(=O)N2CCC[C@H]2C(=O)N[C@@H](Cc2ccccc2)C(=O)N[C@@H](CCO)C(=O)N[C@H](CCCCNC(=O)CN2CCN(CC(=O)O)CCN(CC(=O)O)CCN(CC(=O)O)CC2)C(N)=O)NC(=O)[C@H](CC(N)=O)NC(=O)[C@H](Cc2c[nH]c3ccccc23)NC(=O)[C@H](CCC(N)=O)NC(=O)[C@H](CC(C)C)NC(=O)[C@H](Cc2c[nH]c3ccccc23)NC1=O` [compound 54, Ac-M-S-D-C(3)-W-L-Q-W-N-C(3)-P-F-(hSer)-D-Lys(DOTA)-CONH2] (Ac-MSDCWLQWNCPF[hSer][dK](DOTA)-NH2; disulfide 4-10), the negative-log Kd (pKd) was < 6.52.

Turning to `CSCC[C@H](NC(C)=O)C(=O)N[C@@H](CO)C(=O)N[C@@H](CC(=O)O)C(=O)N[C@H]1CSSC[C@@H](C(=O)N2CCC[C@H]2C(=O)N[C@@H](Cc2ccccc2)C(=O)N[C@@H](CC(=O)O)C(=O)N[C@H](CCCCNC(=O)CN2CCN(CC(=O)O)CCN(CC(=O)O)CCN(CC(=O)O)CC2)C(N)=O)NC(=O)[C@H](CC(N)=O)NC(=O)[C@H](Cc2c[nH]c3ccccc23)NC(=O)[C@H](CCC(N)=O)NC(=O)[C@H](CC(C)C)NC(=O)[C@H](Cc2ccc(-c3ccccc3)cc2)NC1=O` [compound 55, Ac-M-S-D-C(3)-(BIP)-L-Q-W-N-C(3)-P-F-D-D-Lys(DOTA)-CONH2] (Ac-MSDC[Bip]LQWNCPFD[dK](DOTA)-NH2; disulfide 4-10), the pKd was < 6.52.

For `CSCC[C@H](NC(C)=O)C(=O)N[C@@H](CO)C(=O)N[C@@H](CC(=O)O)C(=O)N[C@H]1CSSC[C@@H](C(=O)N2CCC[C@H]2C(=O)N[C@@H](Cc2ccccc2)C(=O)N[C@@H](CC(=O)O)C(=O)N[C@H](CCCCNC(=O)CN2CCN(CC(=O)O)CCN(CC(=O)O)CCN(CC(=O)O)CC2)C(N)=O)NC(=O)[C@H](CC(N)=O)NC(=O)[C@H](Cc2c[nH]c3ccccc23)NC(=O)[C@H](CCC(N)=O)NC(=O)[C@H](CC(C)C)NC(=O)[C@H](Cc2c[nH]c3ncccc23)NC1=O` [compound 57, Ac-M-S-D-C(3)-(7Aza-W)-L-Q-W-N-C(3)-P-F-D-D-Lys(DOTA)-CONH2] (Ac-MSDC[Trp(7-aza)]LQWNCPFD[dK](DOTA)-NH2; disulfide 4-10), the negative-log Kd (pKd) is < 6.52.

`CSCC[C@H](NC(C)=O)C(=O)N[C@@H](CO)C(=O)N[C@@H](CC(=O)O)C(=O)N[C@H]1CSSC[C@@H](C(=O)N2CCC[C@H]2C(=O)N[C@@H](Cc2ccccc2)C(=O)N[C@@H](CC(=O)O)C(=O)N[C@H](CCCCNC(=O)CN2CCN(CC(=O)O)CCN(CC(=O)O)CCN(CC(=O)O)CC2)C(N)=O)NC(=O)[C@H](CC(N)=O)NC(=O)[C@H](Cc2ccc(-c3ccccc3)cc2)NC(=O)[C@H](CCC(N)=O)NC(=O)[C@H](CC(C)C)NC(=O)[C@H](Cc2c[nH]c3ccccc23)NC1=O` [compound 60, Ac-M-S-D-C(3)-W-L-Q-(BIP)-N-C(3)-P-F-D-D-Lys(DOTA)-CONH2] (Ac-MSDCWLQ[Bip]NCPFD[dK](DOTA)-NH2; disulfide 4-10): the pKd is < 6.52.

(Values after patent US20250186541A1, “DLL3 TARGETING PEPTIDES AND CONSTRUCTS THEREOF” (MARIANA ONCOLOGY INC., priority 2023, published 2025).)
